Where a name gives a salt, the structure may show the parent alone. Read-outs that look alike come from different tables or passages of the source.
Tests used:
[1] = tested on: L. donovani MHOM/ET/67/HU3 transgenic intracellular amastigotes; test: L. donovani intracellular amastigote assay (luciferase, THP-1 macrophages); assay type: cell-based; conditions: Leishmania donovani, THP-1, 72 h, read-out: EC50 L. donovani
Method: Leishmania donovani MHOM/ET/67/HU3 cells with the luciferase gene integrated into the parasite genome was obtained as described. Parasites were grown at 28°C in RPMI 1640-modified medium supplemented with 20% heat-inactivated fetal bovine serum (iFBS, Invitrogen) with […] of hygromycin B.
THP-1 cells were differentiated into macrophages with 20 ng/mL of PMA in a 96-well plate at 3 × 10^4 cells per well for 48 hours followed by 24 hours of culture in fresh medium. Cells were then infected with transgenic stationary L. donovani MHOM/ET/67/HU3 promastigotes expressing the luciferase gene at a multiplicity of infection (MOI) of 10. A volume of 100 μL of culture media containing the test compounds was added to each well and the plates were incubated at 37°C for 72 hours. Luminescence was measured using the Promega kit luciferase assay system.

[2] = tested on: intracellular T. cruzi amastigotes; test: Rate of kill, intracellular T. cruzi amastigotes (CPRG, 96-well); assay type: cell-based, Trypanosoma cruzi; conditions: Amastigotes; for EC50: Trypanosoma cruzi
Method: For rate of kill experiments, in vitro activity against intracellular T. cruzi amastigotes was analyzed at early time points: 24, 48 and 72 hours. The standard colorimetric transgenic assay was established in a 96-well format, with serial dilutions of compounds and 0.05% as the final maximal DMSO percentage per well. In these experiments L6 host cells were included as negative controls and CPRG conversion was monitored at 585 nm using a Versamax microplate reader (Molecular devices).

T. cruzi trypomastigotes = test: T. cruzi trypomastigote viability / rate of action assay (CellTiter-Glo bioluminescence); assay type: cell-based, Trypanosoma cruzi; conditions: for EC50: Trypanosoma cruzi, read-out: EC50; for EC50 / EC90/EC50 / Hill slope: Trypomastigotes
Method: Tulahuen T. cruzi trypomastigotes were recovered 6 days post infection from the supernatant of harvested infected L6 cells cultures after 3 hours at 37°C. 90 μL of parasite culture at a density of 5 × 10^6 cells in RPMI 1640 media were dispensed into 96 Nunc flat bottom assay plates containing 10 μL of each compound.
Parasite viability was assessed upon 24, 48 and 72 hour incubation at 37°C in 5% CO2 by adding 50 μL of CellTiter-Glo viability reagent to white 96-well microplates. After signal stabilization, bioluminescence was read. Compound concentrations ranged from 0.1 μM to 50 μM and final maximal DMSO percentage in the well was 0.05%. Results were normalized to […] control columns in each plate.

[3] = tested on: T. b. brucei 427 bloodstream forms; test: Resazurin-based T. b. brucei assay; assay type: cell-based; conditions: Trypanosoma brucei; T. b. brucei 427 bloodstream forms, 72 h; read-out: EC50 T. brucei
Method: Parasites strains adapted to culture in vitro were used. T. b. brucei Lister 427 bloodstream form parasites (information about the identity and genealogy of this strain is available at The Rockefeller University website) were grown in HMI-9 medium supplemented with 10% heat-inactivated fetal bovine serum (iFBS).
Cells in logarithmic phase of growth were added using a Multidrop dispenser (45 μL, 500 bloodstream T. b. brucei parasites per well) to 384-well Corning assay plates already containing 5 μL of each compound and controls, and incubated for 72 hours at 37°C. 10 μL of resazurin were added per well, and the plates were further incubated for 6 hours at 37°C. The final fluorescence was determined at 550–590 nm. Pentamidine at 40 nM and 0.0067% DMSO were used as […] growth controls, respectively.

C[C@@H]1[C@H](O)[C@@H](C)/C=C/C=C/C=C/C=C/C=C/C=C/C=C/[C@H](O[C@@H]2O[C@H](C)[C@@H](O)[C@H](N)[C@@H]2O)C[C@@H]2O[C@](O)(C[C@@H](O)C[C@@H](O)[C@H](O)CC[C@@H](O)C[C@@H](O)CC(=O)O[C@H]1C)C[C@H](O)[C@H]2C(=O)O [Amphotericin B, amphotericin B, reference compound]
EC50 [1]: 53 nM

CC1CS(=O)(=O)CCN1/N=C/c1ccc([N+](=O)[O-])o1 (stereo not shown) [Nifurtimox, nifurtimox]
EC90/EC50 ([2]; 24 h): 4.07
Hill slope ([2]; 24 h): 1.60
EC90/EC50 ([2]; 48 h): 4.16
Hill slope ([2]; 48 h): 1.55
EC90/EC50 ([2]; 72 h): 3.03
Hill slope ([2]; 72 h): 1.98
EC50 ([2]; 24 h): 300 nM
EC50 ([2]; 48 h): 150 nM
EC50 ([2]; 72 h): 130 nM
RLU Average, trypomastigote viability (T. cruzi trypomastigotes; 24 h, 0.0195312 µM, untreated 165759): 169266 RLU
RLU Average, trypomastigote viability (T. cruzi trypomastigotes; 24 h, 0.0390625 µM, untreated 165759): 166443 RLU
RLU Average, trypomastigote viability (T. cruzi trypomastigotes; 24 h, 0.078125 µM, untreated 165759): 165831 RLU
RLU Average, trypomastigote viability (T. cruzi trypomastigotes; 24 h, 0.15625 µM, untreated 165759): 160072 RLU
RLU Average, trypomastigote viability (T. cruzi trypomastigotes; 24 h, 0.3125 µM, untreated 165759): 149962 RLU
RLU Average, trypomastigote viability (T. cruzi trypomastigotes; 24 h, 0.625 µM, untreated 165759): 139314 RLU
RLU Average, trypomastigote viability (T. cruzi trypomastigotes; 24 h, 1.25 µM, untreated 165759): 111524 RLU
RLU Average, trypomastigote viability (T. cruzi trypomastigotes; 24 h, 2.5 µM, untreated 165759): 65827 RLU
RLU Average, trypomastigote viability (T. cruzi trypomastigotes; 24 h, 5 µM, untreated 165759): 11749 RLU
RLU Average, trypomastigote viability (T. cruzi trypomastigotes; 24 h, 10 µM, untreated 165759): 1446 RLU
RLU Average, trypomastigote viability (T. cruzi trypomastigotes; 48 h, 0.0195312 µM, untreated 134778): 139199 RLU
RLU Average, trypomastigote viability (T. cruzi trypomastigotes; 48 h, 0.0390625 µM, untreated 134778): 135603 RLU
RLU Average, trypomastigote viability (T. cruzi trypomastigotes; 48 h, 0.078125 µM, untreated 134778): 135814 RLU
RLU Average, trypomastigote viability (T. cruzi trypomastigotes; 48 h, 0.15625 µM, untreated 134778): 121189 RLU
RLU Average, trypomastigote viability (T. cruzi trypomastigotes; 48 h, 0.3125 µM, untreated 134778): 101689 RLU
RLU Average, trypomastigote viability (T. cruzi trypomastigotes; 48 h, 0.625 µM, untreated 134778): 74973 RLU
RLU Average, trypomastigote viability (T. cruzi trypomastigotes; 48 h, 1.25 µM, untreated 134778): 27237 RLU
RLU Average, trypomastigote viability (T. cruzi trypomastigotes; 48 h, 2.5 µM, untreated 134778): 4248 RLU
RLU Average, trypomastigote viability (T. cruzi trypomastigotes; 48 h, 5 µM, untreated 134778): 1304 RLU
RLU Average, trypomastigote viability (T. cruzi trypomastigotes; 48 h, 10 µM, untreated 134778): 430 RLU
RLU Average, trypomastigote viability (T. cruzi trypomastigotes; 72 h, 0.0195312 µM, untreated 74303): 78773 RLU
RLU Average, trypomastigote viability (T. cruzi trypomastigotes; 72 h, 0.0390625 µM, untreated 74303): 76780 RLU
RLU Average, trypomastigote viability (T. cruzi trypomastigotes; 72 h, 0.078125 µM, untreated 74303): 75817 RLU
RLU Average, trypomastigote viability (T. cruzi trypomastigotes; 72 h, 0.15625 µM, untreated 74303): 65552 RLU
RLU Average, trypomastigote viability (T. cruzi trypomastigotes; 72 h, 0.3125 µM, untreated 74303): 53878 RLU
RLU Average, trypomastigote viability (T. cruzi trypomastigotes; 72 h, 0.625 µM, untreated 74303): 44434 RLU
RLU Average, trypomastigote viability (T. cruzi trypomastigotes; 72 h, 1.25 µM, untreated 74303): 6874 RLU
RLU Average, trypomastigote viability (T. cruzi trypomastigotes; 72 h, 2.5 µM, untreated 74303): 861 RLU
RLU Average, trypomastigote viability (T. cruzi trypomastigotes; 72 h, 5 µM, untreated 74303): 764 RLU
RLU Average, trypomastigote viability (T. cruzi trypomastigotes; 72 h, 10 µM, untreated 74303): 553 RLU
EC50 (T. cruzi trypomastigotes; 24 h): 2080 nM
EC50 (T. cruzi trypomastigotes; 48 h): 640 nM
EC50 (T. cruzi trypomastigotes; 72 h): 600 nM
EC90/EC50 (T. cruzi trypomastigotes; 24 h): 4.04
Hill slope (T. cruzi trypomastigotes; 24 h): 1.58
EC90/EC50 (T. cruzi trypomastigotes; 48 h): 3.61
Hill slope (T. cruzi trypomastigotes; 48 h): 1.71
EC90/EC50 (T. cruzi trypomastigotes; 48 h, listed as nifurtimox): 3.6
Hill slope (T. cruzi trypomastigotes; 48 h, listed as nifurtimox): below 2.1
EC90/EC50 (T. cruzi trypomastigotes; 72 h): 3.33
Hill slope (T. cruzi trypomastigotes; 72 h): 1.83
EC90/EC50 (T. cruzi trypomastigotes; 72 h, listed as nifurtimox): 3.3
Hill slope (T. cruzi trypomastigotes; 72 h, listed as nifurtimox): below 2.1

N=C(N)c1ccc(OCCCCCOc2ccc(C(=N)N)cc2)cc1 [Pentamidine, pentamidine isethionate salt, reference compound]
EC50 [3]: 2 nM

CC[C@@H]([C@H](C)O)n1ncn(-c2ccc(N3CCN(c4ccc(OC[C@@H]5CO[C@@](Cn6cncn6)(c6ccc(F)cc6F)C5)cc4)CC3)cc2)c1=O [Posaconazole, posaconazole]
EC90/EC50 ([2]; 24 h): 5.16
Hill slope ([2]; 24 h): 1.33
EC90/EC50 ([2]; 48 h): 6.41
Hill slope ([2]; 48 h): 1.20
EC90/EC50 ([2]; 72 h): 1.83
Hill slope ([2]; 72 h): 3.65
EC50 ([2]; 24 h): 5410 nM
EC50 ([2]; 48 h): 0.8 nM
EC50 ([2]; 72 h): 0.7 nM
effect against extracellular forms (trypomastigotes) (T. cruzi trypomastigotes; 2 μM, 24 and 48 hours): no effect

— article PMC10529594, “Strasseriolides display in vitro and in vivo activity against trypanosomal parasites and cause morphological and size defects in Trypanosoma cruzi” (PLOS Neglected Tropical Diseases, 2023)
